PubChem BioAssay AID248 (DTP/NCI, 2004)
Toxic doses and inconclusive results are not listed.

Test system: L1210 leukemia ip in BDF1 mice, survival T/C
Assay: NCI In Vivo Anticancer Drug Screen. Data for tumor model L1210 Leukemia (intraperitoneal) in B6D2F1 (BDF1) mice
Conditions: endpoint: mean survival time, higher = longer survival
Procedure, shortened: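 Transplantable tumor model; survival measured in treated vs vehicle control mice. Value = treated/control.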

[1] = dose: 100.0 mg/kg/injection, schedule: Q01DX001 (ip), vehicle: carboxymethylcellulose (CMC)
[2] = dose: 200.0 mg/kg/injection, schedule: Q01DX001 (ip), vehicle: carboxymethylcellulose (CMC)
[3] = dose: 400.0 mg/kg/injection, schedule: Q01DX001 (ip), vehicle: carboxymethylcellulose (CMC)
[4] = dose: 50.0 mg/kg/injection, schedule: Q01DX009 (ip), vehicle: Klucel (hydroxypropylcellulose) (HPC)
[5] = dose: 100.0 mg/kg/injection, schedule: Q01DX009 (ip), vehicle: Klucel (hydroxypropylcellulose) (HPC)
[6] = dose: 200.0 mg/kg/injection, schedule: Q01DX009 (ip), vehicle: Klucel (hydroxypropylcellulose) (HPC)
[7] = dose: 100.0 mg/kg/injection, schedule: Q04DX003 (ip), vehicle: Klucel (hydroxypropylcellulose) (HPC)
[8] = dose: 100.0 mg/kg/injection, schedule: Q01DX001 (ip), vehicle: saline
[9] = dose: 100.0 mg/kg/injection, schedule: Q04DX003 (ip), vehicle: saline
[10] = dose: 200.0 mg/kg/injection, schedule: Q01DX001 (ip), vehicle: saline
[11] = dose: 200.0 mg/kg/injection, schedule: Q04DX003 (ip), vehicle: saline
[12] = dose: 400.0 mg/kg/injection, schedule: Q01DX001 (ip), vehicle: saline
[13] = dose: 400.0 mg/kg/injection, schedule: Q04DX003 (ip), vehicle: saline
[14] = dose: 200.0 mg/kg/injection, schedule: Q04DX003 (ip), vehicle: Klucel (hydroxypropylcellulose) (HPC)
[15] = dose: 400.0 mg/kg/injection, schedule: Q04DX003 (ip), vehicle: Klucel (hydroxypropylcellulose) (HPC)

NC(N)=Nc1ccc(C(=O)Oc2ccc([N+](=O)[O-])cc2CN2CCCCC2)cc1 was tested, and the T/C (dose: 0.5 mg/kg/injection, schedule: Q04DX003 (ip), vehicle: water) was 102 % of control, the T/C (dose: 1.0 mg/kg/injection, schedule: Q04DX003 (ip), vehicle: water) was 110 % of control and the T/C (dose: 2.0 mg/kg/injection, schedule: Q04DX003 (ip), vehicle: water) was 96 % of control. The T/C (dose: 3.12 mg/kg/injection, schedule: Q01DX009 (ip), vehicle: water) was 93 % of control, the T/C (dose: 3.12 mg/kg/injection, schedule: Q04DX003 (ip), vehicle: water) was 105 % of control and the T/C (dose: 4.0 mg/kg/injection, schedule: Q04DX003 (ip), vehicle: water) was 102 % of control. For the same compound, the T/C (dose: 6.25 mg/kg/injection, schedule: Q01DX009 (ip), vehicle: water) was 96 % of control, the T/C (dose: 12.5 mg/kg/injection, schedule: Q01DX009 (ip), vehicle: water) was 101 % of control and the T/C (dose: 12.5 mg/kg/injection, schedule: Q04DX003 (ip), vehicle: water) was 108 % of control.

c1ccc2c(c1)CC1(Cc3ccccc3-2)C[N+]12CCCCC2 was tested, and the T/C (dose: 12.5 mg/kg/injection, schedule: Q04DX003 (ip), vehicle: saline) was 98 % of control, the T/C (dose: 25.0 mg/kg/injection, schedule: Q04DX003 (ip), vehicle: saline) was 98 % of control and the T/C (dose: 50.0 mg/kg/injection, schedule: Q04DX003 (ip), vehicle: saline) was 110 % of control.

For C(CC1CCCC1)=C(CCC1CCCC1)CCC1CCCC1, the T/C (dose: 50.0 mg/kg/injection, schedule: Q04DX002 (ip), vehicle: saline with Tween-80) was 103 % of control, the T/C (dose: 100.0 mg/kg/injection, schedule: Q04DX002 (ip), vehicle: saline with Tween-80) was 92 % of control and the T/C (dose: 200.0 mg/kg/injection, schedule: Q04DX002 (ip), vehicle: saline with Tween-80) was 95 % of control. The T/C (dose: 400.0 mg/kg/injection, schedule: Q04DX002 (ip), vehicle: saline with Tween-80) was 92 % of control.

With COc1cc2c(cc1OC)[C@@H]1Cc3ccc(OC)c(OC)c3CN1CC2 the T/C [1] was 102 % of control, the T/C [2] was 110 % of control and the T/C [3] was 94 % of control.

For C/C=C/C=C/C(=O)NO, the T/C [4] was 93 % of control, the T/C (dose: 62.0 mg/kg/injection, schedule: Q03HX024 (ip), vehicle: saline) was 101 % of control and the T/C [5] was 102 % of control. For the same compound, the T/C (dose: 125.0 mg/kg/injection, schedule: Q03HX024 (ip), vehicle: saline) was 94 % of control, the T/C (dose: 177.0 mg/kg/injection, schedule: Q01DX009 (ip), vehicle: carboxymethylcellulose (CMC)) was 117 % of control and the T/C (dose: 177.0 mg/kg/injection, schedule: Q01DX009 (ip), vehicle: saline) was 94 % of control. The T/C [6] was 104 % of control, the T/C (dose: 266.0 mg/kg/injection, schedule: Q01DX009 (ip), vehicle: saline) was 117 % of control and the T/C (dose: 400.0 mg/kg/injection, schedule: Q01DX009 (ip), vehicle: saline) was 121 % of control. For the same compound, the T/C (dose: 600.0 mg/kg/injection, schedule: Q01DX009 (ip), vehicle: saline) was 165 % of control.

O=P(NCCCl)(Nc1ccccc1)Nc1ccccc1 was tested, and the T/C [4] was 112 % of control, the T/C [5] was 108 % of control and the T/C [7] was 90 % of control. For the same compound, the T/C [6] was 108 % of control.

In the case of CC(=O)[C@@]1(O)CC[C@H]2[C@@H]3C[C@H](C)C4=CC(=O)CC[C@]4(C)[C@H]3[C@@H](O)C[C@@]21C, the T/C (dose: 12.5 mg/kg/injection, schedule: Q04DX002 (ip), vehicle: Klucel (hydroxypropylcellulose) (HPC)) is reported as 102 % of control, the T/C (dose: 25.0 mg/kg/injection, schedule: Q04DX002 (ip), vehicle: Klucel (hydroxypropylcellulose) (HPC)) is reported as 105 % of control and the T/C (dose: 50.0 mg/kg/injection, schedule: Q04DX002 (ip), vehicle: Klucel (hydroxypropylcellulose) (HPC)) is reported as 112 % of control. For the same compound, the T/C [8] was 104 % of control, the T/C (dose: 100.0 mg/kg/injection, schedule: Q01DX009 (ip), vehicle: acetone) was 97 % of control and the T/C [9] was 104 % of control. For the same compound, the T/C [10] was 100 % of control, the T/C (dose: 200.0 mg/kg/injection, schedule: Q01DX009 (ip), vehicle: acetone) was 92 % of control and the T/C [11] was 102 % of control. For the same compound, the T/C [12] was 91 % of control, the T/C (dose: 400.0 mg/kg/injection, schedule: Q01DX009 (ip), vehicle: acetone) was 97 % of control and the T/C [13] was 95 % of control.

CCCCCCCCCCCCCCCCCC(N)=O was tested, and the T/C [5] was 87 % of control, the T/C [7] was 102 % of control and the T/C [6] was 87 % of control. For the same compound, the T/C [14] was 95 % of control, the T/C (dose: 400.0 mg/kg/injection, schedule: Q01DX009 (ip), vehicle: Klucel (hydroxypropylcellulose) (HPC)) was 117 % of control and the T/C [15] was 96 % of control.

With COC(=O)C12COC(=O)C1COC2=O (centres undefined) the T/C [9] was 100 % of control, the T/C [11] was 98 % of control and the T/C [13] was 109 % of control.

For Nc1cccc(-c2ccccc2)c1, the T/C (dose: 100.0 mg/kg/injection, schedule: Q01DX001 (ip), vehicle: Klucel (hydroxypropylcellulose) (HPC)) was 92 % of control and the T/C (dose: 200.0 mg/kg/injection, schedule: Q01DX001 (ip), vehicle: Klucel (hydroxypropylcellulose) (HPC)) was 90 % of control.

COc1ccc(NC(=O)ON(C)C)cc1 was tested, and the T/C (dose: 100.0 mg/kg/injection, schedule: Q04DX002 (ip), vehicle: DMSO) was 111 % of control, the T/C (dose: 200.0 mg/kg/injection, schedule: Q04DX002 (ip), vehicle: DMSO) was 108 % of control and the T/C (dose: 400.0 mg/kg/injection, schedule: Q04DX002 (ip), vehicle: DMSO) was 101 % of control.

Cc1cc(C)c2c(C#N)cn(-c3ccc(Cl)cc3)c2n1 was tested, and the T/C [8] was 87 % of control, the T/C [10] was 97 % of control and the T/C [12] was 91 % of control.

CCCCS/C=C\SCCCC was tested, and the T/C (dose: 100.0 mg/kg/injection, schedule: Q04DX002 (sc), vehicle: olive oil, sesame oil, peanut oil) was 107 % of control, the T/C (dose: 200.0 mg/kg/injection, schedule: Q04DX002 (sc), vehicle: olive oil, sesame oil, peanut oil) was 104 % of control and the T/C (dose: 400.0 mg/kg/injection, schedule: Q04DX002 (sc), vehicle: olive oil, sesame oil, peanut oil) was 104 % of control.

With Cc1ccc2c(n1)Nc1ncnc(N)c1S2 the T/C (dose: 12.5 mg/kg/injection, schedule: Q04DX003 (ip), vehicle: Klucel (hydroxypropylcellulose) (HPC)) was 96 % of control and the T/C (dose: 25.0 mg/kg/injection, schedule: Q04DX003 (ip), vehicle: Klucel (hydroxypropylcellulose) (HPC)) was 108 % of control.

In the case of CC(C)(CSCC(C)(C)C(=O)O)C(=O)O, the T/C [7] is reported as 104 % of control, the T/C [14] is reported as 94 % of control and the T/C [15] is reported as 91 % of control.

For CCCCP(=S)(N1CCCCC1)N1CCCCC1, the T/C [9] was 95 % of control, the T/C [11] was 97 % of control and the T/C [13] was 86 % of control.

With CCCCN(C)N=Nc1cn(C2OC(CO)C(O)C2O)c(=O)[nH]c1=O (centres undefined) the T/C (dose: 100.0 mg/kg/injection, schedule: Q01DX009 (ip), vehicle: water) was 112 % of control, the T/C (dose: 100.0 mg/kg/injection, schedule: Q04DX003 (ip), vehicle: water) was 96 % of control and the T/C (dose: 200.0 mg/kg/injection, schedule: Q01DX009 (ip), vehicle: water) was 106 % of control. For the same compound, the T/C (dose: 200.0 mg/kg/injection, schedule: Q04DX003 (ip), vehicle: water) was 102 % of control, the T/C (dose: 400.0 mg/kg/injection, schedule: Q01DX009 (ip), vehicle: water) was 117 % of control and the T/C (dose: 400.0 mg/kg/injection, schedule: Q04DX003 (ip), vehicle: water) was 107 % of control.

In the case of C=CCc1ccc(OCCOCCNC2CC(C)CCC2C(C)C)c(OC)c1 (centres undefined), the T/C [7] is reported as 92 % of control.

OCCC(c1ccc(Cl)cc1)N1CCCCC1 (centres undefined) was tested, and the T/C (dose: 100.0 mg/kg/injection, schedule: Q01DX001 (ip), vehicle: other) was 104 % of control.

COc1ccc(OC)c(NC(=O)Nc2cc([N+](=O)[O-])ccc2OC)c1 was tested, and the T/C [4] was 101 % of control, the T/C [5] was 97 % of control and the T/C [6] was 111 % of control.

With CNc1ncnc2[nH]ncc12 the T/C (dose: 50.0 mg/kg/injection, schedule: Q01DX001 (ip), vehicle: carboxymethylcellulose (CMC)) was 94 % of control, the T/C [1] was 88 % of control and the T/C [2] was 96 % of control. For the same compound, the T/C [3] was 103 % of control.

In the case of COc1cc(CC2c3cc(OC)c(OC)cc3CCN2C)c(Oc2cc3c(cc2OC)-c2c(OC)c(OC)c(OC)c4c2C(C3)N(C)CC4)cc1OC (centres undefined), the T/C (dose: 100.0 mg/kg/injection, schedule: Q04DX003 (ip), vehicle: saline with Tween-80) is reported as 97 % of control and the T/C (dose: 200.0 mg/kg/injection, schedule: Q04DX003 (ip), vehicle: saline with Tween-80) is reported as 97 % of control.

For CC1(C)OC2OC(COC(=O)c3ccccc3)C(=O)C2O1 (centres undefined), the T/C (dose: 50.0 mg/kg/injection, schedule: Q01DX001 (ip), vehicle: saline) was 101 % of control, the T/C [8] was 106 % of control and the T/C [10] was 101 % of control. The T/C [12] was 98 % of control.
